{
  "source": "patent US4146615A",
  "about": "“Chrysanthellum plant extract” (Laboratoires Sarget, priority 1977, dated 1979)",
  "key": {"capillary permeability": {"system": "capillary permeability", "assay_type": "in vivo, rat", "description": "The capillary permeability was determined by the method of […]., and […]., Arch. Inter. Physiol. […] The products were administered i.p. for capillary permeability, the ED 50 as well as the regression analysis equation expressing the effect on the capillary permeability as a function of the dose expressed in mg/kg."}, "capillary resistance": {"system": "capillary resistance", "assay": "Capillaroprotector effects, capillary resistance", "assay_type": "in vivo, rat", "description": "The capillary resistance was determined by a variant of the method of Charlier R., Hosslet A., and Colot M., Arch. Inter. Physiol. Biochem., 71, 1-45 (1963) in Sprague Dowley EOPS rats. The products were administered i.p."}, "EOPS mouse": {"system": "EOPS mouse", "conditions": "Mice", "description": "Acute toxicity was determined in the EOPS mouse, the standard Wistar rat and the EOPS Wistar rat for several methods of administration. The products were administered orally in suspension in gum julep, and i.p. and i.v. in a physiological solution neutralized with NaOH.\nIn all cases the doses are expressed in mg per kg of animal weight."}, "EOPS Wistar rat": {"system": "EOPS Wistar rat", "assay": "Acute toxicity in the EOPS Wistar rat (Litchfield and Wilcoxon)", "assay_type": "in vivo", "conditions": "EOPS Wistar rats, IP"}, "[1]": {"system": "male standard Wistar rats", "assay": "Intoxication by slow IV perfusion in the anesthetized rat", "description": "The carotid pressure, the heart rate, the respiration and the electrocardiogram were recorded on lead DII. […] The products were administered in solution in physiological serum. The solutions were neutralized with bicarbonate."}, "[2]": {"system": "male mice of the Swiss EOPS strain", "assay": "Analgesic activity, P.B.Q. test (chemical stimulus)", "assay_type": "in vivo, mouse", "conditions": "10 minutes before P.B.Q., range in parentheses", "description": "Experiments were performed on male mice of the Swiss EOPS strain and two stress-producing stimuli were used: the P.B.Q. test (chemical stimulus) and the hot plate test (thermal stimulus).\nAn aqueous alcoholic solution of 0.02% phenyl p-benzoquinone (P.B.Q.) was administered i.p. to the animals; at the end of 5 minutes this induced abdominal contractions and extension of the mice's hind paws.\nThe doses are expressed in mg/kg of animal weight."}, "[3]": {"system": "male mice of the Swiss EOPS strain", "assay": "Analgesic activity, hot plate test (thermal stimulus)", "assay_type": "in vivo, mouse", "conditions": "56° C., reaction time ≥150% of reference time", "description": "Experiments were performed on male mice of the Swiss EOPS strain and two stress-producing stimuli were used: the P.B.Q. test (chemical stimulus) and the hot plate test (thermal stimulus). […] The doses are expressed in mg/kg of animal weight."}, "Edema from Carrageenan": {"system": "Edema from Carrageenan", "assay": "Anti-inflammatory activity, edema test with carrageenan", "assay_type": "in vivo, rat", "conditions": "i.p.", "description": "This effect was determined in the edema test with carrageenan in male EOPS Wistar rats. A volume of 0.1 ml of a suspension of 0.5% carrageenan in physiologic serum was injected into the muscle bundle of the metatarsal region of the animal's hind paws. The test sample was administered i.p. in neutralized physiologic solution simultaneously with the carrageenan. The edema was measured by plethysmometry 2, 3 and 6 hours after the administration of carrageenan."}, "constraint ulcer": {"system": "constraint ulcer", "assay": "Anti-ulcer activity, constraint ulcer test (Bonfils)", "assay_type": "in vivo, rat", "conditions": "50 mg/kg PO", "description": "The anti-ulcer activity was determined in female EOPS Wistar rats in the constraint ulcer test by the technique of Bonfils.\nAfter 24 hours without food the rats, lightly anesthetized with ether, were immobilized in pliable metal-lattice corselets. The paws were tied together in pairs. The rats were suspended in their cages so that they could not touch any point of support. Just before anesthesia the test samples were administered PO in suspension in gum julep in a volume of 0.5 cc/100g. The animals were left constrained for 24 hours and then killed with ether. The stomachs were removed and cut along the greatest curvature. They were stretched out on cork slabs covered with glazed paper to facilitate examination and photographing. A scale of 0 to 4 was used for the number and dimension of ulcerations (0 for no ulceration, 4 for more than 4 ulcers or a perforation)."}, "[4]": {"system": "edema of the rat ear induced by croton oil", "assay": "Local anti-inflammatory action, edema of the rat ear induced by croton oil (Le Douarec)", "assay_type": "in vivo", "conditions": "topical", "description": "This was determined by the technique of edema of the rat ear induced by croton oil according to the method of Le Douarec. The irritant mixture was prepared from two solutions: solution A which contained 10 ml of pyridine, 2.5 ml of water and 12.5 ml of ethyl acetate and in which the test sample was dissolved; solution B, which contained 1 ml of croton oil and 24 ml of ethyl acetate. The two solutions A and B were mixed together before use. Edema was induced by swabbing the ear with a cotton wad moistened with the irritant mixture (about 1 ml of mixture per rat)."}},
  "note": "Like-named read-outs stand apart in the source and are kept apart here.",
  "data": [
    {"compound": "Sodium escinate", "values": [
      {"measurement": "Capillary Permeability ED 50", "setting": "capillary permeability; i.p., standard Wistar rat, range in parentheses", "result": "12 (10-15) mg/kg"},
      {"measurement": "Capillary permeability regression equation, constant term", "setting": "capillary permeability; rat, not told", "result": 159},
      {"measurement": "Capillary permeability regression equation, slope (coefficient of X)", "setting": "capillary permeability; rat, not told", "result": -6.50},
      {"measurement": "Capillary Resistance activity", "setting": "capillary resistance; dose 5 mg/kg i.p.", "result": "26 ± 15", "unit": "ucmHg/hour"},
      {"measurement": "Capillary Resistance, % of animals with activity ≥25", "setting": "capillary resistance; dose 5 mg/kg i.p.", "result": 60, "unit": "%"},
      {"measurement": "Capillary Resistance activity", "setting": "capillary resistance; dose 10 mg/kg i.p.", "result": "78 ± 24", "unit": "ucmHg/hour"},
      {"measurement": "Capillary Resistance, % of animals with activity ≥25", "setting": "capillary resistance; dose 10 mg/kg i.p.", "result": 100, "unit": "%"}
    ]},
    {"compound": "β-aescine", "values": [
      {"measurement": "MTD (maximum tolerated dose)", "setting": "EOPS mouse; IP", "result": 2.5, "unit": "mg per kg"},
      {"measurement": "MTD (maximum tolerated dose)", "setting": "EOPS mouse; IV", "result": "< 1.25", "unit": "mg per kg"},
      {"measurement": "MTD (maximum tolerated dose)", "setting": "EOPS Wistar rat", "result": "< 6.25", "unit": "mg per kg"},
      {"measurement": "arterial pressure", "setting": "[1]; 1 mg/kg/min", "result": "a slight hypotension was observed at the beginning of the perfusion; the arterial pressure next increased, then abruptly dropped to end rapidly in death"},
      {"measurement": "arterial pressure and heart and respiratory rates", "setting": "[1]; up to 0.1 mg/kg/min", "result": "tended to increase"},
      {"measurement": "P.B.Q. Test ED 50", "setting": "[2]; i.p.", "result": "2.7 (1.7-7.5) mg/kg"},
      {"measurement": "Hot Plate Test AD 50", "setting": "[3]; i.p.", "result": 4.5, "unit": "mg/kg"},
      {"measurement": "Edema from Carrageenan ED 50", "setting": "Edema from Carrageenan; 2 hours after carrageenan", "result": 6.5, "unit": "mg/kg"},
      {"measurement": "Edema from Carrageenan ED 50", "setting": "Edema from Carrageenan; 3 hours after carrageenan", "result": 8.5, "unit": "mg/kg"},
      {"measurement": "Edema from Carrageenan ED 50", "setting": "Edema from Carrageenan; 6 hours after carrageenan", "result": 7.5, "unit": "mg/kg"},
      {"measurement": "% of Anti-Ulcer Activity", "setting": "constraint ulcer", "result": 13, "unit": "%"}
    ]},
    {"compound": "CCCCC1C(=O)N(c2ccccc2)N(c2ccccc2)C1=O", "note": "[Phenylbutazone]", "values": [
      {"measurement": "ED50", "setting": "[2]; Mus musculus, ip, read-out: P.B.Q. Test ED 50", "result": 14, "unit": "mg/kg"},
      {"measurement": "ED50", "setting": "[3]; Mus musculus, ip, read-out: Hot Plate Test AD 50", "result": 125, "unit": "mg/kg"}
    ]},
    {"compound": "CC(=O)Oc1ccccc1C(=O)O", "note": "[Aspirin]", "values": [
      {"measurement": "% of Activity (inhibition of the edema)", "setting": "[4]; 25 mg/ml of mixture", "result": 27, "unit": "%"},
      {"measurement": "% of Activity (inhibition of the edema)", "setting": "[4]; 50 mg/ml of mixture", "result": 65, "unit": "%"}
    ]}
  ]
}
